Test results: PubChem BioAssay (NCI)
Several values for one entry are separate records, joined by “and”; a condition that tells them apart may be missing. Equal entries are not always repeated.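 Exposure lasted 48 hours, with cells grown in 96-well plates and compounds tested at five concentrations. GI50 is the concentration that inhibits growth by half. The concentration for full growth arrest is given as TGI.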

Legend:
Assay in all cases: inhibition of tumour cell growth, NCI panel, 48 h
UACC-257 melanoma = tested on: UACC-257 melanoma
HOP-92 NSCLC = tested on: HOP-92 NSCLC
OVCAR-4 ovarian = tested on: OVCAR-4 ovarian
MCF7 breast = tested on: MCF7 breast
NCI/ADR-RES ovarian = tested on: NCI/ADR-RES ovarian
MALME-3M melanoma = tested on: MALME-3M melanoma
SF-539 CNS = tested on: SF-539 CNS
SK-MEL-2 melanoma = tested on: SK-MEL-2 melanoma
SNB-75 CNS = tested on: SNB-75 CNS
IGROV1 ovarian = tested on: IGROV1 ovarian

Compound	TGI (UACC-257 melanoma) [µM]	TGI (HOP-92 NSCLC) [µM]	TGI (OVCAR-4 ovarian) [µM]	TGI (MCF7 breast) [µM]	TGI (NCI/ADR-RES ovarian) [µM]	TGI (MALME-3M melanoma) [µM]	TGI (SF-539 CNS) [µM]	TGI (SK-MEL-2 melanoma) [µM]	TGI (SNB-75 CNS) [µM]	TGI (IGROV1 ovarian) [µM]	GI50 (UACC-257 melanoma)	GI50 (HOP-92 NSCLC)	GI50 (SNB-75 CNS)
COc1cc2c(cc1OC)C1c3ccccc3CCN1CC2 (configuration not stated)	> 100	> 100	> 100	> 100	> 100	> 100	75.1	> 100	> 100	> 100			
CC(C)=C[C@@H]1C[C@H](n2cc(C)c(=O)[nH]c2=O)ON1CCO	> 100	> 100	> 100	> 100	> 100	> 100	> 100	> 100	> 100	> 100			
CC(C)(C)C1=Cc2cc3cc(C(C)(C)C)[nH]c(=O)c3cc2S(=O)(=O)N1	58.7	39.3	> 100			57.7		38.2	> 100				
O=C(O)[C@@H]1C[C@@H](O)CN1C(=O)OCc1ccccc1	> 100	> 100	> 100	> 100	> 100	> 100	> 100	> 100	> 100	> 100			
COc1ccc(Nc2nc3ccc(C(F)(F)F)cc3nc2C(=O)O)cc1OC	> 100		> 100	> 100	57.5	> 100		35.5	81.5	> 100			
CCC(C(=O)O)c1ccc(OCc2ccccc2)cc1 (configuration not stated)	> 100	> 100	> 100			> 100	> 100	> 100	> 100	> 100			
C/C(=N/NC(N)=S)c1ccc2ccccc2c1	> 100	> 100	> 100			> 100	44.4	51.1	96.3	> 100			
CCC12C[N+]3([O-])CCc4c([nH]c5ccccc45)C(C(=O)OC)(c4cc5c(cc4OC)N(C)C4C(O)(C(=O)OC)C(OC(C)=O)C6(CC)C=CCN7CCC54C76)CC(C3)C1O2 (configuration not stated)	35.1	21.3	45.9			22.9	0.821	0.649	0.952	14.9			
O=C1CCSSCCC(=O)NCCN1	> 100	> 100	> 100		> 100	> 100	> 100	> 100		> 100			
CCC[C@H]1C(=O)N=C(N)N1C(=O)OCc1ccccc1	> 100		> 100	> 100	> 100	> 100	> 100	> 100	> 100	> 100			
N#Cc1c(-c2ccccc2)/c(=C\Nc2ccc(Cl)cc2)c(=O)n2c1nc1ccccc12	> 100		> 100	> 100	> 100	> 100	> 100	> 100	> 100	> 100			
COC(=O)c1c(C)cccc1/C=C1/Cc2c(C)cccc2C1=O	> 100	> 100	> 100	> 100	> 100	> 100	> 100		> 100	> 100			
CCOP(=O)(OCC)C1C(CO)OC(n2ccc(=O)[nH]c2=O)C1O (configuration not stated)	> 100	> 100	> 100			> 100	> 100	> 100	> 100	> 100			
COc1ccc(/C(=N/O)c2ccccc2-c2nc3ccccc3c(=O)n2-c2ccc(S(=O)(=O)Nc3ncccn3)cc2)cc1C	30.5	30.4	> 31.6	22.2	> 31.6		27.2		26.6	> 31.6			
Cc1cc(-c2nc3c(O)cccc3s2)ccc1N	57.6	58.9		32.6	50.4		> 100	52.9	> 100	53.8			
CCOC(=O)c1[nH]cc(C)c1-c1ccn(-c2ccccc2)c1	> 100	82.8	> 100	> 100	> 100		> 100	> 100	49.5	55.9			
CSC1CC2C(CC1(C)O)C2(C)C (configuration not stated)	> 100	> 100	> 100			> 100	> 100	> 100	> 100	> 100	40.8 µM and > 100 µM	25.5 µM and > 100 µM	> 100 µM and 47.9 µM
CCNC(=O)Nc1ccccn1	> 100	> 100	> 100	> 100		> 100	> 100		> 100	> 100			
COC(=O)c1ccccc1/C=C1/Cc2ccccc2C1=O	68.1	> 100	> 100	> 100	> 100	> 100	> 100		> 100	88.7			
C/C(N=Nc1nc2ccccc2s1)=C1/C=CC=CN1O	> 100	60.9	> 100	60.5	98.1	57.4	> 100	> 100		> 100			
NC(=O)C(=O)N/N=C1/c2ccccc2CC1C1(O)C(=O)Nc2c(Cl)cc(Cl)cc21 (configuration not stated)	> 100	> 100	> 100			> 100	> 100	> 100	> 100	> 100			
COc1cc(OCc2ccc3oc(=O)c(-c4ccccc4)nc3c2)cc(OC)c1OC	> 100		> 100	> 100	> 100	> 100	> 100	> 100	> 100	> 100			
CCN(CC)CCNc1ccc2nnn3c4ccc(OC)cc4c(=O)c1c23	25.1	19.5	19.9			22.3	17.2	27.4	21	22.9			
CCN(CC)CCOC(NC(C)=O)(c1ccccc1)c1ccccc1	> 100	> 100	> 100	> 100	> 100	> 100	> 100		> 100	> 100			
